The source of these data is US20060177853A1, “Antidepressant drug target” (The Scripps Research Institute, priority 2005, published 2006).

“And” between values parts separate entries of the source, which are not always exact repeats. Equal entries are not always repeated. “Also recorded” adds a separate entry of the source. Where two headings read alike, the source gives them in different places. Square brackets hold non-standard residues; d marks the D form. Peptide text beside a SMILES is read from it. * marks the point of attachment. Fmoc = O=C(OCC1c2ccccc2-c2ccccc21)*; Cha = N[C@@H](CC1CCCCC1)C(=O)O; AMC = Cc1cc(=O)oc2cc(N*)ccc12

One data set deals with GalR1 sites. In words: GalR1 binding sites in brain tissue after treatment, total galanin-binding sites minus GalR2 sites. Type of data set: in vivo. The following applies: rat DRN, FLX 10 mg/kg i.p. 14 days. How it is done:
(§1) Tissue dissections. Tissues used for RNA extraction or binding study were rapidly dissected after sacrifice and immediately frozen on dry ice. All dissections were performed by an experienced neuroanatomist with a rat brain slicer and for small structures, like LC and DRN, the punching method was used to assure reproducible dissection.
(§2) Membrane preparation and binding assay. DRN and LC were dissected from a total of 16 rats per group and samples from 4 animals were pooled. […] Incubations were at room temperature for 45 minutes and terminated by rapid filtration through glass fiber filters (Packard, Meriden, Conn.). After three washes with cold PBS (pH 7.4) containing 0.01 % (v/v) Triton X 100, the filter was counted with Cobra II auto Gamma counting systems (Parkard Bioscience, Downer Grove, Ill.).
(§3) Neurol. […] Anxiety 2000, 12, 170-7; Nolen, W. A., et al. Int. Clin. Psychopharmacol. […] Neurol. […] As GalR3 is not abundant in the regions tested, GalR1 sites were estimated by subtracting GalR2 sites from the sum of GalR1 and GalR2 receptor sites. […] Neurol.
(§4) Drug treatments. Fluoxetine (FLX, Sigma, St. Louis, Mo.) was dissolved in saline and administered i.p. at a dose of 10 mg/kg daily for 14 days for biochemical studies. Separate groups of rats received daily i.p. injections of FLX or saline vehicle for 14 days for testing in the forced swim task. […]

The subject of another data set is GalR2 sites. In words: GalR2 binding sites in brain tissue after treatment, saturating [125I]galanin binding with galanin (2-11) as competitor. It counts as in vivo, rat. The conditions noted are these: FLX 10 mg/kg i.p. 14 days. How it is done:
as §1, §2, §3, §4

Data set [1] has as its system time spent active in forced swim test. Briefly: Forced swim test. It counts as in vivo, rat.
Experimental: Rats underwent aseptic stereotaxic surgery under ketamine (100 mg/kg, i.p.) xylazine (10 mg/kg, i.p.) anesthesia. A guide cannula 1.4 cm in length, of 26 gauge stainless steel hypodermic tubing (Plastics One, St. Louis, Mo.) was implanted into the right lateral ventricle at coordinates 0.5 mm posterior, 1.0 mm lateral to bregma, and 3.5 mm ventral to the surface of the skull. A 31 gauge stylet was secured to the guide cannula following the surgery. After surgery, rats were given at least 8 days recovery before the start of behavioral testing.
Fluoxetine (FLX, Sigma, St. Louis, Mo.) was dissolved in saline and administered i.p. at a dose of 10 mg/kg daily for 14 days for biochemical studies. Separate groups of rats received daily i.p. injections of FLX or saline vehicle for 14 days for testing in the forced swim task. On day 14, rats were administered FLX or saline i.p. at 45 minutes prior to the forced swim test and M40 (Bachem, King of Prussia, Pa.) or ACSF i.c.v. at 15 minutes prior to the forced swim test (see methods below). Single i.c.v. microinjections of M40 (8 nmol/2 μl ACSF) or ACSF (2 μl) were performed with a 10 μl Hamilton syringe connected via Becton Dickinson polyethylene tubing (PE20) to a 1.5 cm injector (Plastics One) fabricated from 31 gauge hypodermic tubing. The animal was allowed to freely explore a small cage during the infusion of 2 μl over 1.5 minutes, with each 1 μl separated by ten seconds, and an additional sixty seconds before the injector was withdrawn from the guide cannula. The treatments consisted of equal numbers of rats receiving one of the following combinations of treatments: saline+ACSF, saline+M40, FLX+ACSF, or FLX+M40. Additional treatment groups (n=10 per group) were examined in a separate forced swim test 45 minutes after i.p. injection of one of the following: 50% DMSO (w/v), galnon (Vulpes, Estonia; dissolved in 50% DMSO), or desipramine (Sigma, St Louis, Mo., 15 mg/kg in 50% DMSO).
Forced swim test. Rats were placed singly in a cylindrical glass container (48 cm height, 21 cm diameter) with tap water (25° C.) to a depth of 27 cm and tested for 10 minutes. Water was changed and the cylinder thoroughly rinsed after each test. Tests were recorded on videotape and later scored by an experienced observer blind to the experimental conditions of the rats.
Data for forced swim test studies utilizing galnon and desipramine were subject to a one factor analysis of variance (ANOVA), with drug treatment as the between subjects factor. For the M40 FLX study, data were subject to a two factor between subjects design, with chronic drug treatment (FLX vs vehicle) and i.c.v. drug (M40 vs ACSF) as the main factors. Significant main effects were followed up with Fisher's LSD posthoc test to determine specific group differences.
A further data set relates to galanin mRNA. Briefly: Quantitative real time PCR of galanin mRNA in rat brain regions after treatment. Type of data set: in vivo. How it is done: as §1
Quantitative real time PCR. Brain tissues obtained from 12 rats (DRN, LC, paraventricular nucleus of hypothalamus) or 6 rats (prefrontal cortex, amygadala, hippocampus) were pooled and total RNA was prepared with Trizol reagent (Invitrogen, Carlsbad, Calif.) following manufacturer's instructions. For galanin mRNA quantification in DRN and LC after FLX treatment, the experiment was repeated with 3 independent pools of 4 rats per treatment per brain region. Aliquots of total RNA (2 μg) and oligo(dT) primers were then reverse transcribed with ThermoScript RT (Invitrogen) at 51° C. for 60 minutes. Quantitative PCR was performed using a Roche LightCycler and LightCycler Fast Start DNA Master SYBR Green I mix (Roche Applied Science, Indianapolis, Ind.). […] Real time PCR assays included an initial 10 minutes, 94° C. step to activate Taq polymerase, followed by 35 cycles of denaturation 94° C., 10 seconds, annealing 58° C., 10 seconds, and extension 72° C., 25 seconds. The results were expressed in arbitrary units normalized by the expression levels of the reference gene, β-actin.
(§5) Drug treatments. Fluoxetine (FLX, Sigma, St. Louis, Mo.) was dissolved in saline and administered i.p. at a dose of 10 mg/kg daily for 14 days for biochemical studies. Separate groups of rats received daily i.p. injections of FLX or saline vehicle for 14 days for testing in the forced swim task. On day 14, rats were administered FLX or saline i.p. at 45 minutes prior to the forced swim test and M40 (Bachem, King of Prussia, Pa.) or ACSF i.c.v. at 15 minutes prior to the forced swim test (see methods below). Single i.c.v. microinjections of M40 (8 nmol/2 μl ACSF) or ACSF (2 μl) were performed with a 10 μl Hamilton syringe connected via Becton Dickinson polyethylene tubing (PE20) to a 1.5 cm injector (Plastics One) fabricated from 31 gauge hypodermic tubing. The animal was allowed to freely explore a small cage during the infusion of 2 μl over 1.5 minutes, with each 1 μl separated by ten seconds, and an additional sixty seconds before the injector was withdrawn from the guide cannula. The treatments consisted of equal numbers of rats receiving one of the following combinations of treatments: saline+ACSF, saline+M40, FLX+ACSF, or FLX+M40. […] One week after the forced swim test, rats were randomly assigned to treatment groups. Rats were treated with vehicle, galnon or desipramine. Forty five minutes after injection, rats were subjected to the open field test.

For data set [2], the system named is locomotor activity (line crossing). In words: Open field test. The following applies: for locomotor activity in the open field (words): desipramine 15 mg/kg. Type of data set: in vivo, rat. The procedure:
as §5, with “treatments. […]” for “treatments. Fluoxetine (FLX, Sigma, St.”, “and […]” for “and M40”, “or […].” for “or ACSF i.c.v.”, “or FLX+[…].” for “or FLX+M40.”, “groups. […]” for “groups. Rats were treated with vehicle, galnon or desipramine.”, “test. Open field test. One week after the forced swim test, rats were randomly assigned to treatment groups. […] The apparatus consisted of a square arena (100 by 100 cm), with a 40 cm high opaque white wall. The floor was marked into 9 equal segments and fluorescent light provided diffuse overhead illumination. Locomotor activity over 5 minutes was recorded on videotape. Tapes were later scored blind to the experimental condition of the animals. Line crossing behavior (defined as at least three paws in a square) was tallied and compared between experimental conditions.” for “test.”

In data set [3] the test system is time spent active in forced swim test. The conditions noted are these: dose that suppresses status epilepticus; Bartfai et al. 2004; cited from earlier work.
The test system of a further data set is seizures. The conditions noted are these: Saar et al. 2002; cited from earlier work.
For another data set, the target named is T1, rat GalR2 (Rattus norvegicus, UniProt O08726).
T1 construct: expressed in transfected cells; host or cells: CHO cells, stably transfected
T1 sequence (O08726 1-372): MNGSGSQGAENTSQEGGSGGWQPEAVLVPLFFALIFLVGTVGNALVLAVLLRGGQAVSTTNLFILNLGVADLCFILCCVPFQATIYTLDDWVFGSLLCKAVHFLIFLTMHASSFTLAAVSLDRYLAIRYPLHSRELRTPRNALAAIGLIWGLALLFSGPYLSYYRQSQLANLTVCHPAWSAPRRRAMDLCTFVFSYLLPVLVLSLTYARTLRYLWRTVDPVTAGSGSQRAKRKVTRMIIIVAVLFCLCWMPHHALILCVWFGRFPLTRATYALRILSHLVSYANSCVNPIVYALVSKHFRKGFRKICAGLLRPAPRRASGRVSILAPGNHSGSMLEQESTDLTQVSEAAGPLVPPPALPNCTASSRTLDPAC
In words: Displacement of [125I]galanin binding from membranes of GalR2-expressing cells. The following applies: data not shown. The source says:
Cell lines. Stably transfected Chinese Hamster Ovary (CHO) cells expressing rat GalR2, and Bowes' melanoma cells that express human GalR1, were cultivated as described earlier (Wang, S., et al. Biochemistry 1998, 37, 6711-7; and Heuillet, E., et al. Eur. J. Pharmacol. 1994, 269, 139-47).
Membrane preparation and binding assay. DRN and LC were dissected from a total of 16 rats per group and samples from 4 animals were pooled. Rat brain synaptic membranes (Lu, X., et al. Neurosci. Lett. 2000, 286, 149-53) and cells were prepared as previously described (Heuillet, E., et al. Eur. J. Pharmacol. 1994, 269, 139 47). Equilibrium binding of ^125I, galanin (2200 Ci/mmol, PerkinElmer Life Science, Boston, Mass.) to hippocampal membrane preparations was performed in 150 μL binding buffer [50 mM Tris Cl (pH 7.4), 5 mM MgCl2, 0.05 % (w/v) bovine serum albumin, supplemented with protease inhibitors]. Incubations were at room temperature for 45 minutes and terminated by rapid filtration through glass fiber filters (Packard, Meriden, Conn.). After three washes with cold PBS (pH 7.4) containing 0.01 % (v/v) Triton X 100, the filter was counted with Cobra II auto Gamma counting systems (Parkard Bioscience, Downer Grove, Ill.).
A general note: Displacement assays read how much labelled ligand stays bound in the presence of the test substance.

The subject of another data set is withdrawal signs. The following applies: Zachariou et al. 2003, cited from earlier work.

In the case of `CNCCC(Oc1ccc(C(F)(F)F)cc1)c1ccccc1` (stereo not shown) [FLX, fluoxetine], the “effect on number of GalR1 binding sites in DRN” value in the data set on GalR1 sites was “without changes; also recorded: unaltered”. Further, the “increase in number of GalR2 binding sites in DRN” value in the data set on GalR2 sites (rat DRN) was 50% and 58%. Further, the “effect on GalR2 sites in LC” value with GalR2 sites (rat LC) was “not in LC”. Further, the “increase in time spent active in the forced swim test vs saline-pretreated rats” value in data set [1] (FLX 10 mg/kg i.p. 14 days, 10 minute test, P<0.05) is recorded as ~46%. For the same compound, the “time spent active in the forced swim test” value in data set [1] (FLX 10 mg/kg i.p. 14 days, FLX+ACSF vs Saline+ACSF, p<0.05) is on record as “significant increase”. Besides, the “increase in galanin mRNA levels in DRN” value in the data set on galanin mRNA (rat DRN, FLX 10 mg/kg i.p. 14 days) stood at 100%; in the data set on galanin mRNA (rat DRN, FLX 10 mg/kg i.p. 14 days, pooled samples), 2 fold. For the same compound, in the data set on galanin mRNA (rat DRN, FLX 14 days, three independent pools, P<0.05 vs Ctrl), the “effect on galanin mRNA in DRN” value was “increased galanin mRNA”. The “increase in galanin mRNA levels in LC” value in the data set with galanin mRNA (rat LC, FLX 10 mg/kg i.p. 14 days, pooled samples) is listed as 2.2 fold. Also, the “effect on galanin mRNA in LC” value with galanin mRNA (rat LC, FLX 14 days) was “increased galanin mRNA”.

As to `CNCCCN1c2ccccc2CCc2ccccc21` [desipramine], in data set [1] (desipramine 15 mg/kg i.p., positive control), the “activity in the forced swim test” value was “significantly increased activity”. Further, the “increase in activity in the forced swim test” value in data set [1] (desipramine 15 mg/kg i.p., positive control, p<0.001) came out at 125%. Further, the “locomotor activity in the open field (words)” value in data set [2] (p<0.01) was “significantly reduced activity”; in data set [2] (p<0.01, listed as Desipramine), “significant reduction”.

For the compound `COC(=O)[C@H](CCCCN)NC(=O)[C@]1(C)NC(=O)c2nc(oc2C)[C@](C)(C(=O)NC2c3ccccc3-c3ccccc32)NC(=O)c2nc(oc2C)[C@](C)(C(=O)NCC2CCCCC2)NC(=O)c2nc1oc2C` [galmic], in data set [3], the “effect in the forced swim test” value is listed as “antidepressant like effect”.

In the case of `Cc1cc(=O)oc2cc(NC(=O)[C@H](CCCCN)NC(=O)[C@H](CC3CCCCC3)NC(=O)OCC3c4ccccc4-c4ccccc43)ccc12` [galnon] (Fmoc-[Cha]-Lys-{AMC}), in the data set with seizures, the “latency of phenyleneterazol induced seizures” value is “increase the latency”. Moreover, the “increase in activity in the forced swim test” value in data set [1] (galnon 20 mg/kg i.p., p<0.05) is on record as “significant”; in data set [1] (galnon 40 mg/kg i.p., p<0.01), “significant”. For the same compound, the “activity in the forced swim test” value in data set [1] (galnon 1-40 mg/kg i.p., 45 minutes after injection) is “significant increase; also recorded: dose dependent increase”. For the same compound, the Ki (as a rule, the equilibrium dissociation constant of an inhibitor or competing ligand from its target) at rat GalR2 was 34.1 µM. The “effect on withdrawal signs (words)” value with withdrawal signs is “attenuate several withdrawal signs”; in the data set with withdrawal signs (listed as Galnon), “inhibit signs of opiate withdrawal”. Further, the “activity in the open field” value is given as “significantly reduced” in data set [2] (galnon 20 mg/kg, p<0.01); “significantly reduced” in data set [2] (galnon 40 mg/kg, p<0.05); “significantly reduced activity” in data set [2] (higher doses of galnon, P<0.05 vs control).
